Patent publication US10857155B2, “Compounds targeting proteins, compositions, methods, and uses thereof” (BioTheryX, Inc., priority 2017, dated 2020)

How the values were obtained:
Assay type in all cases: cell-based
IL-1β = experiment: IL-1 beta in LPS-induced PBMCs / CD14+ monocytes, Meso Scale assay
Procedure: (§1) FIG. 2 represents the activity against IL-1-beta in CD14 monocytes, plated in 96 well plates and pretreated with Compounds 1, 2, or 3, or pomalidomide, for 1 h and then induced with 100 ng/mL LPS for 18-24 h. Cytokines were measured according to MesoScale protocol. Negative control wells were treated with DMSO. Compound activity was measured as a percentage of LPS-induced activity.
(§2) Either frozen primary blood mononuclear cells (PBMCs) or frozen CD14+ mobilized peripheral blood monocytes were purchased from AllCells (PB003F, Normal Peripheral Blood MNC (Alameda, Calif.)). Cells were quick thawed, washed 1-time with RPMI-1640 (10% FBS/1% Pen-Strep) and plated in 96 well plates at 200,000 cells per well. Cells were pretreated with DMSO only, pomalidomide or the indicated compounds for 1 h and then induced with 100 ng/mL lipopolysaccharide (LPS) for 18-24 h. The supernatant was analyzed for IL-1 beta, IL-6, and TNF-alpha, using Meso Scale assay according to manufacturer's protocol. The negative control wells were treated with DMSO.
(§3) Compound activity is measured as fold difference from the DMSO control. Compounds 1, 2, and 3 each reduced expression of IL-1-b in LPS-stimulated PBMCs by over 80% at 1 uM, relative to a just under 80% reduction with pomalidomide at 10 μM (FIG. 2).

H1048 cells = experiment: Cell viability assay (CellTiter-Glo), H1048 cells; settings: Homo sapiens, NCI-H1048, 72 h, 3 days; for viability at 1 µM: H1048, 1 μM; for viability at 10 µM: H1048, 10 μM
Procedure: (§4) Molm-13 cells were cultivated in RPMI-1640 (10% FBS/1% pen-strep) and were plated in white walled 96-well plates at 20,000 cells/well. H1048 cells were cultured in DMEM:F12 media supplemented with 5% fetal bovine serum, insulin, transferrin, sodium selenite, hydrocortisone, estradiol, penicillin and streptomycin, and were plated in white walled 96-well plates at 20,000 cells/well.
(§5) Cells were treated with compound at the indicated concentration or DMSO (control) and the cultures were incubated for 3 days at 37° C. and 5% CO2. Following the incubation period, 100 μL of CellTiterGlow (CTG) reagent (CellTiter-Glo® Luminescent Cell Viability Assay, Promega (Madison, Wis.)) was added to each well. Following a 10 min incubation with shaking, luminescence was measured using a Victor Wallac Luminometer.

IL-2 = IL-2 in PBMCs on anti-human CD3 (OKT3) coated plates, Mesoscale analysis; settings: PBMC, 24 h, relative to DMSO control, read-out: Fold Change IL-2
Procedure: For the IL-2 analysis, 96 well plates were precoated with 1 μg/mL anti-human CD3 antibody (OKT3, eBioscience Inc., San Diego, Calif.). After washing with PBS, compounds were added (50 μL/well) followed by PBMCs diluted at 3-4 million cells/mL (150 μL/well). Plates were incubated for 24 h and the supernatants collected for Mesoscale IL-2 analysis.
as §3

Molm-13 cells = experiment: Cell viability assay (CellTiter-Glo), Molm-13 cells; settings: for IC50 / effect on cell viability: Molm-13 cells; for IC50: approximate; for viability at 0.6 µM: MOLM-13, 0.6 μM; for viability at 10 µM: MOLM-13, 10 μM
Procedure: FIG. 5 represents antiproliferative activity in Molm-13 cells. The cells were incubated with Compound 1, 2, or 3 (at the indicated concentration), DMSO, or pomalidomide. Compound activity was measured based on the signal from remaining viable cells.
as §4, §5

TNF-α = experiment: TNF-alpha in LPS-induced PBMCs / CD14+ monocytes, Meso Scale assay
Procedure: as §1, with “FIG. 4” for “FIG. 2”, “against TNF-alpha” for “against IL-1-beta”, “in CD14,” for “in CD14”, “protocol. The negative” for “protocol. Negative”, “DMSO. Cells were treated with compound (at the indicated concentrations) or 10 μM pomalidomide.” for “DMSO.”
as §2, §3

GSPT1 = target: T1, GSPT1 (Homo sapiens, UniProt P15170); experiment: Western blot analysis of GSPT1 protein levels in Jurkat cells; settings: DMSO = 100.00; for GSPT1 protein level (% of DMSO control) at 0.1 µM: 100 nM compound; for GSPT1 protein level (% of DMSO control) at 1 µM: 1 uM compound
T1 construct: Whole cell extract was prepared with RIPA buffer according to manufacturer's protocol; endogenous in cells; host or cells: Jurkat cells
Procedure: FIG. 1 represents the activity against CK1α, ikaros, and GPST1 in Jurkat cells, plated in 96 well plates. Cells were pretreated with compounds for 4 h and then lysed and protein levels measure via Western blots. The negative control wells were treated with DMSO. Cells were treated with the indicated compound at the indicated concentration. Compound activity is measured as a decrease in GSPT1 protein levels.
Western Blot Protocol: Cell lines were grown in RPMI 1640 supplemented with streptomycin, penicillin and 10% fetal bovine serum.
Jurkat cells were cultured at approximately 10^6 cells per mL, DMSO or the indicated compound was added to the cells and allowed to incubate for 6-8 h. Whole cell extract was prepared with RIPA buffer according to manufacturer's protocol (Pierce (Dallas, Tex.)). Briefly, ˜2×10^6 cells were washed once in PBS, the cell pellet was resuspended in RIPA buffer and allowed to incubate for 15 min on ice. Cell debris was removed by centrifugation and the cleared whole cell lysate was transferred to a new tube for further analysis.
For western blot analysis, whole cell extracts were separated on 4-12% SDS-polyacrylamide gels, transferred to nitrocellulose and probed with the indicated primary antibodies. Membranes were subsequently washed and probed with the appropriate horseradish peroxidase (HRP)-conjugated secondary antibody. Membranes were subsequently washed and probed with the appropriate IRDye secondary antibodies (LI-COR). The signal was detected using the Odyssey Imaging System (LI-COR).

IL-6 = IL-6 in LPS-induced PBMCs / CD14+ monocytes, Meso Scale assay
Procedure: as §1, with “FIG. 3” for “FIG. 2”, “against IL-6” for “against IL-1-beta”, “in CD14,” for “in CD14”, “DMSO. Cells were treated with compound (at the indicated concentrations) or 10 μM pomalidomide.” for “DMSO.”
as §2, §3

T1 sequence (P15170 whole entry): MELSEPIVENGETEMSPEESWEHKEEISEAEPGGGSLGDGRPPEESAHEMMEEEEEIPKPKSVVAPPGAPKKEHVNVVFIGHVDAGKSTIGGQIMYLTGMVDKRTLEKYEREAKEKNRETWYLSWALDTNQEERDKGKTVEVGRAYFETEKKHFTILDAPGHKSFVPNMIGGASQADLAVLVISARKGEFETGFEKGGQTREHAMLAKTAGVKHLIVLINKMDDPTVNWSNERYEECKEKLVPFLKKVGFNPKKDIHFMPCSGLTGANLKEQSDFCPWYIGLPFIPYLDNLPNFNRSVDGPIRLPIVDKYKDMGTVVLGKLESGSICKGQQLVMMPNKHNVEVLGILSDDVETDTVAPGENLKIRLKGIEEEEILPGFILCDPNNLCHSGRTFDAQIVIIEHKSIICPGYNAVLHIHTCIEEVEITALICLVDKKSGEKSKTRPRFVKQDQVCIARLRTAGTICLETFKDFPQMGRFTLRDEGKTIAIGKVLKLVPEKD

SMILES	GSPT1 protein level (% of DMSO control) at 0.1 µM (GSPT1) [%]	GSPT1 protein level (% of DMSO control) at 1 µM (GSPT1) [%]	viability at 1 µM (H1048 cells) [%]	viability at 10 µM (H1048 cells) [%]	inhibition at 1 µM (IL-1β) [%]	fold induction at 1 µM (IL-2)	inhibition at 1 µM (TNF-α) [%]	inhibition at 1 µM (IL-6) [%]	other results
Cc1ccc(NC(=O)NCc2ccc3c(c2)CN(C2CCCC(=O)NC2=O)C3=O)cc1 (centres unmarked) [Compound 2]	134	23	28.3	4.93	–	–	–	–	inhibition at 0.1 µM (IL-1β): 78%; fold induction at 0.1 µM (IL-2): 1.4; viability at 0.4 µM (Molm-13 cells; Homo sapiens, 72 h, MOLM-13, 0.4 μM, 3 days): 50%; IC50 (Molm-13 cells; Homo sapiens): ~800 nM; effect on cell viability (Molm-13 cells; 1 μM (FIG. 5)): reduced cell viability; inhibition at 0.1 µM (TNF-α): 79%; inhibition at 0.1 µM (IL-6): 51%
CCCNC(=O)NCc1ccc2c(c1)CN([C@H]1CCCC(=O)NC1=O)C2=O [Compound 4, (S)-1-((2-(2,7-dioxoazepan-3-yl)-1-oxoisoindolin-5-yl)methyl)-3-propylurea]	214	116	103	97.5	39	1.5	44	33	–
Cc1ccc(CC(=O)NCc2ccc3c(c2)CN([C@H]2CCCC(=O)NC2=O)C3=O)cc1Cl [Compound 7, (S)-2-(3-chloro-4-methylphenyl)-N-((2-(2,7-dioxoazepan-3-yl)-1-oxoisoindolin-5-yl)methyl)acetamide]	83.3	18.5	44.1	7.25	56	1	59	73	viability at 1 µM (Molm-13 cells; Homo sapiens, 72 h, MOLM-13, 1 μM, 3 days): 70%
Cc1ccc(CC(=O)NCc2ccc3c(c2)CN([C@H]2CCCC(=O)NC2=O)C3=O)cc1 [Compound 9, (S)—N-((2-(2,7-dioxoazepan-3-yl)-1-oxoisoindolin-5-yl)methyl)-2-(p-tolyl)acetamide]	128	32.1	57.1	7.27	61	1.8	64	63	viability at 10 µM (Molm-13 cells; Homo sapiens, 72 h, 3 days): 99%
Nc1cccc2c1C(=O)N(C1CCC(=O)NC1=O)C2=O (centres unmarked) [pomalidomide, reference compound]	–	–	–	–	–	–	–	–	reduction of expression of IL-1-b (IL-1β; LPS-stimulated PBMCs, 10 μM (FIG. 2)): under 80%; effect on cell viability (Molm-13 cells; 10 μM (FIG. 5)): no effect on cellular viability; reduction of expression of TNF-α (TNF-α; LPS-stimulated PBMCs, 10 μM (FIG. 4)): ~30%; reduction of IL-6 levels (IL-6; LPS-stimulated PBMCs, 10 μM (FIG. 3)): under 60%

The next lines start with results.

GSPT1 protein level (% of DMSO control) at 0.1 µM (GSPT1) [%]	GSPT1 protein level (% of DMSO control) at 1 µM (GSPT1) [%]	SMILES	viability at 1 µM (H1048 cells) [%]	viability at 10 µM (H1048 cells) [%]	inhibition at 1 µM (IL-1β) [%]	fold induction at 1 µM (IL-2)	inhibition at 1 µM (TNF-α) [%]	inhibition at 1 µM (IL-6) [%]	other results
28.6	3.63	Cc1ccc(NC(=O)NCc2ccc3c(c2)CN([C@H]2CCCC(=O)NC2=O)C3=O)cc1Cl [Compound 1]	8.39	3.51	–	–	–	–	inhibition at 0.1 µM (IL-1β): 70%; fold induction at 0.1 µM (IL-2): 1.4; viability at 0.3 µM (Molm-13 cells; Homo sapiens, 72 h, MOLM-13, 0.3 μM, 3 days): 50%; IC50 (Molm-13 cells; Homo sapiens): ~450 nM; inhibition at 0.1 µM (TNF-α): 75%; inhibition at 0.1 µM (IL-6): 55%
95.5	46.8	O=C1CCCC(N2Cc3cc(CNC(=O)Nc4cccc(Cl)c4)ccc3C2=O)C(=O)N1 (centres unmarked) [Compound 3]	47.1	6.25	–	–	–	–	inhibition at 0.1 µM (IL-1β): 59%; fold induction at 0.1 µM (IL-2): 1.4; viability at 0.6 µM (Molm-13 cells; Homo sapiens, 72 h, 3 days): 50%; IC50 (Molm-13 cells; Homo sapiens): ~1000 nM; effect on cell viability (Molm-13 cells; 1 μM (FIG. 5)): reduced cell viability; inhibition at 0.1 µM (TNF-α): 59%; inhibition at 0.1 µM (IL-6): 27%
80.2	15.7	Cc1c(Cl)cccc1NC(=O)NCc1ccc2c(c1)CN([C@H]1CCCC(=O)NC1=O)C2=O [Compound 5, (S)-1-(3-chloro-2-methylphenyl)-3-((2-(2,7-dioxoazepan-3-yl)-1-oxoisoindolin-5-yl)methyl)urea]	27.3	2.36	90	1.3	92	99	viability at 0.6 µM (Molm-13 cells; Homo sapiens, 72 h, 3 days): 50%
113	37.9	O=C1CCC[C@H](N2Cc3cc(CNC(=O)Nc4ccc(F)c(Cl)c4)ccc3C2=O)C(=O)N1 [Compound 6, (S)-1-(3-chloro-4-fluorophenyl)-3-((2-(2,7-dioxoazepan-3-yl)-1-oxoisoindolin-5-yl)methyl) urea]	45.7	5.42	64	1.3	65	77	viability at 0.7 µM (Molm-13 cells; Homo sapiens, 72 h, MOLM-13, 0.7 μM, 3 days): 50%
52.6	14.9	COc1ccc(NC(=O)NCc2ccc3c(c2)CN([C@H]2CCCC(=O)NC2=O)C3=O)cc1Cl [Compound 8, (S)-1-(3-chloro-4-methoxyphenyl)-3-((2-(2,7-dioxoazepan-3-yl)-1-oxoisoindolin-5-yl)methyl)urea]	17.4	4.4	78	0.9	84	95	viability at 0.5 µM (Molm-13 cells; Homo sapiens, 72 h, MOLM-13, 0.5 μM, 3 days): 48%
–	18.6	O=C1CCC[C@H](N2Cc3cc(CNC(=O)Nc4ccc(C(F)(F)F)c(Cl)c4)ccc3C2=O)C(=O)N1 [Compound 12, (S)-1-(3-chloro-4-(trifluoromethyl)phenyl)-3-((2-(2,7-dioxoazepan-3-yl)-1-oxoisoindolin-5-yl)methyl)urea]	–	–	75	1.5	59	90	viability at 10 µM (Molm-13 cells; Homo sapiens, 72 h, 3 days): 11%
